Assay results from patent publication US20250312499A1, “KISSPEPTIN RECEPTOR (KISS1R) TARGETED THERAPEUTICS AND USES THEREOF” (priority 2024, published 2025).
pKi: −log10 of the molar value. Numbered stars: 1 amine (or outer) side, 2 acyl side, 3 side chain; on linkers, the order of the positions; unused ones are H or OH. Square brackets hold non-standard residues; d marks the D form. Peptide text beside a SMILES is read from it. * marks the point of attachment. DOTA(Lu) = O=C1CN2CCN3CCN(CC(=O)*)CCN(CC2)CC(=O)[O][Lu]([O]1)[O]C(=O)C3; DOTA = O=C(O)CN1CCN(CC(=O)O)CCN(CC(=O)*)CCN(CC(=O)O)CC1; Ala(9-anthryl) = N[C@@H](Cc1c2ccccc2cc2ccccc12)C(=O)O; Gly(N-(3-F-4-Me-benzyl)) = Cc1ccc(CNCC(=O)*)cc1F; Butanoyl(4-(4-I-phenyl)) = O=C(CCCc1ccc(I)cc1)*; Api(1-amidino) = N=C(N)N1CCC(N)(C(=O)O)CC1; Hydrocinnamoyl(4-Me) = Cc1ccc(CCC(=O)*)cc1; Phe(3-F) = N[C@@H](Cc1cccc(F)c1)C(=O)O; 2Nal = N[C@@H](Cc1ccc2ccccc2c1)C(=O)O; d2Nal = N[C@H](Cc1ccc2ccccc2c1)C(=O)O; Trx = NC[C@H]1CC[C@H](C(=O)O)CC1; X1 = O=C(CN1CCC(N[*:1])CC1)[*:2]; 4Pal = N[C@@H](Cc1ccncc1)C(=O)O; d4Pal = N[C@H](Cc1ccncc1)C(=O)O; Cha = N[C@@H](CC1CCCCC1)C(=O)O; 4Amb = NCc1ccc(C(=O)O)cc1; Octanoyl = CCCCCCCC(=O)*; Api = NC1(C(=O)O)CCNCC1; PEG2 = NCCOCCOCCC(=O)O; Ahx = NCCCCCC(=O)O; azaGly = NNC(=O)O; Sar = CNCC(=O)O

Biological target: human kisspeptin receptor (Homo sapiens (Human), UniProt Q969F8)
Sequence (Q969F8 whole entry): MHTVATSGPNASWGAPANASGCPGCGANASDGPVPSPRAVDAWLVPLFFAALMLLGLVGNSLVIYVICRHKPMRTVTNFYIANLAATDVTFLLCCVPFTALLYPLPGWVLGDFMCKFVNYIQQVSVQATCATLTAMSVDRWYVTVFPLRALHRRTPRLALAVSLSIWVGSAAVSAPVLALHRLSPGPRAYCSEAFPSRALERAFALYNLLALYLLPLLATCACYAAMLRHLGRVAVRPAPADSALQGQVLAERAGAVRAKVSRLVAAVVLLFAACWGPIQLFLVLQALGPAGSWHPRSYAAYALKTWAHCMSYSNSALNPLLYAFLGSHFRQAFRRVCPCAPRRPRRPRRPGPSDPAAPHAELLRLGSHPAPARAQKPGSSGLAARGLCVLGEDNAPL
Test: Human KISS1R binding assay (membrane competition binding)
Settings: not given
Summary of the method: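 Membranes from tetracycline-induced (48 h) Flp-In T-Rex 293 cells expressing receptor, 5–10 μg, incubated 90 min at room temperature with 0.2 nM [125I]-metastin (45-54) and competitor (typically 0–10,000 nM) in Tris/Mg/Ca/EGTA/0.1% BSA, pH 7.4. Filtration, washing, counting; Ki by non-linear regression.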

| SMILES | pKi |
| --- | --- |
| Cc1ccc(CNCC(=O)N2CCC(NC(=O)[C@H](CC(C)C)NC(=O)NNC(=O)[C@H](Cc3ccccc3)NC(=O)[C@@H](NC(=O)[C@H](CC(N)=O)NC(=O)[C@H](Cc3ccc4ccccc4c3)NC(=O)[C@@H](Cc3ccc(O)cc3)NC(=O)CCCCCNC(=O)CN3CCN4CCN5CCN(CC3)CC(=O)[O][Lu]([O]C(=O)C4)[O]C(=O)C5)[C@@H](C)O)(C(=O)N[C@@H](Cc3c[nH]c4ccccc34)C(N)=O)CC2)cc1F [Compound 118-Lu] ({DOTA(Lu)-Ahx}-[dY][2Nal]NTF[azaGly]L[Api](Gly(N-(3-F-4-Me-benzyl)))W-NH2) | > 8.00 |

Same assay, conditions: 90 min at room temperature; competition with 0.2 nM [125I]-metastin (45-54); Flp-In T-Rex 293 kisspeptin membranes; metal complexes nonradioactive Ga, In, Lu; read-out: hKiSSR Binding Ki (90 min)

| SMILES | pKi |
| --- | --- |
| CCCCCCCC(=O)N[C@@H](CCCCNC(=O)CN1CCN(CC(=O)O)CCN(CC(=O)O)CCN(CC(=O)O)CC1)C(=O)N[C@@H](CC(N)=O)C(=O)N[C@H](C(=O)N[C@@H](Cc1ccccc1)C(=O)NNC(=O)N[C@@H](CC(C)C)C(=O)NC1(C(=O)N[C@@H](Cc2ccncc2)C(N)=O)CCN(C(=N)N)CC1)[C@@H](C)O [Compound 226] (Octanoyl-K(DOTA)NTF[azaGly]L[Api(1-amidino)][4Pal]-NH2) | 7.00 to 8.00 |
| Cc1ccc(CNCC(=O)N2CCC(NC(=O)[C@H](CC(C)C)NC(=O)NNC(=O)[C@H](Cc3ccccc3)NC(=O)[C@@H](NC(=O)[C@H](CC(N)=O)NC(=O)[C@@H](Cc3ccncc3)NC(=O)[C@@H](Cc3ccc(O)cc3)NC(=O)CN3CCN(CC(=O)O)CCN(CC(=O)O)CCN(CC(=O)O)CC3)[C@@H](C)O)(C(=O)N[C@@H](Cc3ccncc3)C(N)=O)CC2)cc1F [Compound 281] ({DOTA}-[dY][d4Pal]NTF[azaGly]L[Api](Gly(N-(3-F-4-Me-benzyl)))[4Pal]-NH2) | > 8.00 |
| CC(C)C[C@H](NC(=O)NNC(=O)[C@H](Cc1ccccc1)NC(=O)[C@@H](NC(=O)[C@H](CC(N)=O)NC(=O)[C@H](Cc1c2ccccc2cc2ccccc12)NC(=O)[C@@H](Cc1ccc(O)cc1)NC(=O)CCCCCNC(=O)CN1CCN(CC(=O)O)CCN(CC(=O)O)CCN(CC(=O)O)CC1)[C@@H](C)O)C(=O)NC1(C(=O)N[C@@H](Cc2c[nH]c3ccccc23)C(N)=O)CCN(C(=N)N)CC1 [Compound 184] ({DOTA-Ahx}-[dY][Ala(9-anthryl)]NTF[azaGly]L[Api(1-amidino)]W-NH2) | > 8.00 |
| Cc1ccc(CNCC(=O)N2CCC(NC(=O)[C@H](CC(C)C)NC(=O)NNC(=O)[C@H](Cc3ccccc3)NC(=O)c3ccc(CNC(=O)CCCCCNC(=O)CN4CCN(CC(=O)O)CCN(CC(=O)O)CCN(CC(=O)O)CC4)cc3)(C(=O)N[C@@H](Cc3c[nH]c4ccccc34)C(N)=O)CC2)cc1F [Compound 22] ({DOTA-Ahx-4Amb}-F[azaGly]L[Api](Gly(N-(3-F-4-Me-benzyl)))W-NH2) | > 8.00 |
| CNCC(=O)N1CCC(NC(=O)[C@H](CC(C)C)NC(=O)NNC(=O)[C@H](Cc2ccccc2)NC(=O)[C@@H](NC(=O)[C@H](CC(N)=O)NC(=O)[C@@H](Cc2ccc3ccccc3c2)NC(=O)[C@@H](Cc2ccc(O)cc2)NC(=O)CCCc2ccc(I)cc2)[C@@H](C)O)(C(=O)N[C@@H](Cc2c[nH]c3ccccc23)C(N)=O)CC1 [Compound 395] ({Butanoyl(4-(4-I-phenyl))}-[dY][d2Nal]NTF[azaGly]L[Api](Sar)W-NH2) | > 8.00 |
| CC(C)C[C@H](NC(=O)NNC(=O)[C@H](Cc1ccccc1)NC(=O)[C@@H](NC(=O)[C@H](CC(N)=O)NC(=O)[C@@H](Cc1ccc2ccccc2c1)NC(=O)[C@@H](Cc1ccc(O)cc1)NC(=O)[C@@H](CCCCNC(=O)CCCc1ccc(I)cc1)NC(=O)CCCCCNC(=O)CN1CCN(CC(=O)O)CCN(CC(=O)O)CCN(CC(=O)O)CC1)[C@@H](C)O)C(=O)NC1(C(=O)N[C@@H](Cc2ccccc2)C(N)=O)CCN(C(=N)N)CC1 [Compound 310] ({DOTA-Ahx}-[dK](Butanoyl(4-(4-I-phenyl)))[dY][d2Nal]NTF[azaGly]L[Api(1-amidino)]F-NH2) | > 8.00 |
| Cc1ccc(CNCC(=O)N2CCC(NC(=O)[C@H](CC(C)C)NC(=O)NNC(=O)[C@H](Cc3ccccc3)NC(=O)[C@@H](NC(=O)[C@H](CC(N)=O)NC(=O)[C@@H](Cc3ccncc3)NC(=O)[C@@H](Cc3ccc(O)cc3)NC(=O)CCCCCNC(=O)CN3CCN(CC(=O)O)CCN(CC(=O)O)CCN(CC(=O)O)CC3)[C@@H](C)O)(C(=O)N[C@@H](Cc3c[nH]c4ccccc34)C(N)=O)CC2)cc1F [Compound 31] ({DOTA-Ahx}-[dY][d4Pal]NTF[azaGly]L[Api](Gly(N-(3-F-4-Me-benzyl)))W-NH2) | > 8.00 |
| Cc1ccc(CNCC(=O)N2CCC(NC(=O)[C@H](CC(C)C)NC(=O)NNC(=O)[C@H](Cc3ccccc3)NC(=O)[C@@H](NC(=O)[C@H](CC(N)=O)NC(=O)[C@@H](Cc3ccc(O)cc3)NC(=O)CCCCCNC(=O)CN3CCN(CC(=O)O)CCN(CC(=O)O)CCN(CC(=O)O)CC3)[C@@H](C)O)(C(=O)N[C@@H](Cc3ccncc3)C(N)=O)CC2)cc1F [Compound 291] ({DOTA-Ahx}-[dY]NTF[azaGly]L[Api](Gly(N-(3-F-4-Me-benzyl)))[4Pal]-NH2) | > 8.00 |
| Cc1ccc(CNCC(=O)N2CCC(NC(=O)[C@H](CC(C)C)NC(=O)NNC(=O)[C@H](Cc3ccccc3)NC(=O)[C@@H](NC(=O)[C@H](CC(N)=O)NC(=O)[C@@H](Cc3c[nH]c4ccccc34)NC(=O)[C@@H](Cc3ccc(O)cc3)NC(=O)CCCCCNC(=O)[C@H](Cc3ccc(O)cc3)NC(=O)CNC(=O)c3ccc(CNC(=O)CN4CCN(CC(=O)O)CCN(CC(=O)O)CCN(CC(=O)O)CC4)cc3)[C@@H](C)O)(C(=O)N[C@@H](Cc3c[nH]c4ccccc34)C(N)=O)CC2)cc1F [Compound 149] ({DOTA-4Amb}-GY[Ahx][dY][dW]NTF[azaGly]L[Api](Gly(N-(3-F-4-Me-benzyl)))W-NH2) | > 8.00 |
| CNCC(=O)N1CCC(NC(=O)[C@H](CC(C)C)NC(=O)NNC(=O)[C@H](CC2CCCCC2)NC(=O)[C@@H](NC(=O)[C@H](CC(N)=O)NC(=O)[C@H](CCCCNC(=O)CN2CCN(CC(=O)O)CCN(CC(=O)O)CCN(CC(=O)O)CC2)NC(=O)[C@@H](Cc2ccc(O)cc2)NC(=O)CCOCCOCCNC(=O)CCc2ccc(C)cc2)[C@@H](C)O)(C(=O)N[C@H](Cc2c[nH]c3ccccc23)C(N)=O)CC1 [Compound 356] ({Hydrocinnamoyl(4-Me)-PEG2}-[dY]K(DOTA)NT[Cha][azaGly]L[Api](Sar)[dW]-NH2) | > 8.00 |
| Cc1ccc(CNCC(=O)N2CCC(NC(=O)[C@H](CC(C)C)N[C@H](CNC(=O)[C@H](Cc3ccccc3)NC(=O)CCCCCNC(=O)CN3CCN(CC(=O)O)CCN(CC(=O)O)CCN(CC(=O)O)CC3)C(F)(F)F)(C(=O)N[C@@H](Cc3c[nH]c4ccccc34)C(N)=O)CC2)cc1F [Compound 147] | < 7.00 |
| Cc1ccc(CNCC(=O)N2CCC(NC(=O)[C@H](CC(C)C)NC(=O)NNC(=O)[C@H](Cc3cccc(F)c3)NC(=O)[C@@H](NC(=O)[C@H](CC(N)=O)NC(=O)[C@@H](CCC(=O)O)NC(=O)[C@H]3CC[C@H](CNC(=O)CN4CCN(CC(=O)O)CCN(CC(=O)O)CCN(CC(=O)O)CC4)CC3)[C@@H](C)O)(C(=O)N[C@@H](Cc3c[nH]c4ccccc34)C(N)=O)CC2)cc1F [Compound 161] ({DOTA-Trx}-[dE]NT[Phe(3-F)][azaGly]L[Api](Gly(N-(3-F-4-Me-benzyl)))W-NH2) | > 8.00 |
| Cc1ccc(CNCC(=O)N2CCC(NC(=O)[C@H](CC(C)C)NC(=O)NNC(=O)[C@H](Cc3ccncc3)NC(=O)[C@@H](NC(=O)[C@H](CC(N)=O)NC(=O)c3ccc(CNC(=O)CN4CCN(CC(=O)O)CCN(CC(=O)O)CCN(CC(=O)O)CC4)cc3)[C@@H](C)O)(C(=O)N[C@@H](Cc3ccncc3)C(N)=O)CC2)cc1F [Compound 259] ({DOTA-4Amb}-NT[4Pal][azaGly]L[Api](Gly(N-(3-F-4-Me-benzyl)))[4Pal]-NH2) | 7.00 to 8.00 |
| Cc1ccc(CNCC(=O)N2CCC(NC(=O)[C@H](CC(C)C)NC(=O)NNC(=O)[C@H](CC3CCCCC3)NC(=O)[C@@H](NC(=O)[C@H](CC(N)=O)NC(=O)[C@@H](Cc3ccncc3)NC(=O)[C@@H](Cc3ccc(O)cc3)NC(=O)CCCCCNC(=O)CN3CCN(CC(=O)O)CCN(CC(=O)O)CCN(CC(=O)O)CC3)[C@@H](C)O)(C(=O)N[C@@H](Cc3c[nH]c4ccccc34)C(N)=O)CC2)cc1F [Compound 316] ({DOTA-Ahx}-[dY][d4Pal]NT[Cha][azaGly]L[Api](Gly(N-(3-F-4-Me-benzyl)))W-NH2) | > 8.00 |
| Cc1ccc(CNCC(=O)N2CCC(NC(=O)[C@H](CC(C)C)NC(=O)NNC(=O)[C@H](Cc3cccc(F)c3)NC(=O)[C@@H](NC(=O)[C@H](CC(N)=O)NC(=O)[C@H](CCC(=O)O)NC(=O)CN3CCC(NC(=O)CN4CCN(CC(=O)O)CCN(CC(=O)O)CCN(CC(=O)O)CC4)CC3)[C@@H](C)O)(C(=O)N[C@@H](Cc3c[nH]c4ccccc34)C(N)=O)CC2)cc1F [Compound 159] ({DOTA}-[X1]ENT[Phe(3-F)][azaGly]L[Api](Gly(N-(3-F-4-Me-benzyl)))W-NH2) | > 8.00 |
| Cc1ccc(CNCC(=O)N2CCC(NC(=O)c3ccc(-c4ccccc4OCCNC(=O)[C@H](Cc4ccccc4)NC(=O)CCCCCNC(=O)CN4CCN(CC(=O)O)CCN(CC(=O)O)CCN(CC(=O)O)CC4)cc3)(C(=O)N[C@@H](Cc3c[nH]c4ccccc34)C(N)=O)CC2)cc1F [Compound 283] | 7.00 to 8.00 |
| CC(C)C[C@H](NC(=O)NNC(=O)[C@H](Cc1ccccc1)NC(=O)[C@@H](NC(=O)[C@H](CC(N)=O)NC(=O)[C@H](Cc1ccc2ccccc2c1)NC(=O)[C@@H](Cc1ccc(O)cc1)NC(=O)CCCCCNC(=O)CN1CCN(CC(=O)O)CCN(CC(=O)O)CCN(CC(=O)O)CC1)[C@@H](C)O)C(=O)NC1(C(=O)N[C@@H](Cc2ccccc2)C(N)=O)CCN(C(=N)N)CC1 [Compound 277] ({DOTA-Ahx}-[dY][2Nal]NTF[azaGly]L[Api(1-amidino)]F-NH2) | > 8.00 |
| CNCC(=O)N1CCC(NC(=O)[C@H](CC(C)C)NC(=O)NNC(=O)[C@H](CC2CCCCC2)NC(=O)[C@@H](NC(=O)[C@H](CC(N)=O)NC(=O)[C@@H](CCCCNC(=O)CN2CCN(CC(=O)O)CCN(CC(=O)O)CCN(CC(=O)O)CC2)NC(=O)[C@@H](Cc2ccc(O)cc2)NC(=O)CCOCCOCCNC(=O)CCc2ccc(C)cc2)[C@@H](C)O)(C(=O)N[C@H](Cc2c[nH]c3ccccc23)C(N)=O)CC1 [Compound 358] ({Hydrocinnamoyl(4-Me)-PEG2}-[dY][dK](DOTA)NT[Cha][azaGly]L[Api](Sar)[dW]-NH2) | > 8.00 |
